Assay results: ChEMBL document CHEMBL1147394, “Zaragozic acids D and D2: potent inhibitors of squalene synthase and of Ras farnesyl-protein transferase” (J Nat Prod, 1993)
pIC50: −log10 of the molar value.

How the values were obtained:
[1] = Inhibition of bovine Ras FPTase; set-up: species or system Bos taurus
Squalene synthase = target: T1, Squalene synthase (Rattus norvegicus, UniProt Q02769); assay: Inhibition of rat liver squalene synthase by liqiud scintillation counting
T1 sequence (Q02769 whole entry): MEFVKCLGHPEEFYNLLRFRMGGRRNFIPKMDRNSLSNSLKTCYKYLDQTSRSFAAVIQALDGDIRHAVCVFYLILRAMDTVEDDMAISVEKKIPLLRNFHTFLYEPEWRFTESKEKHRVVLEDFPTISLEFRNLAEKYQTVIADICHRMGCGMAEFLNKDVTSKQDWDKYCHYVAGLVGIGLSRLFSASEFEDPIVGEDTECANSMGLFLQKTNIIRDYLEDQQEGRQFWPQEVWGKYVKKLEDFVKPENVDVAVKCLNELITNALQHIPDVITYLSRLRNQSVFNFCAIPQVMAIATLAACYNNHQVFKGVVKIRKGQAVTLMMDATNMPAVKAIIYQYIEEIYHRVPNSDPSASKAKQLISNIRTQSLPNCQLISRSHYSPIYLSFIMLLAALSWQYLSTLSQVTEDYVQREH

SMILES | pIC50 [1] | pIC50 (Squalene synthase)
C/C=C/CCCC/C=C/CCCCC(=O)O[C@@H]1[C@@H](O)[C@@]2(CCC(C)C(O)C(C)C/C=C/c3ccccc3)O[C@H](C(=O)O)[C@@](O)(C(=O)O)[C@]1(C(=O)O)O2 (some centres undefined) [ZARAGOZIC ACID B] | 6.00 | 9.70
CC(=O)O[C@H](CCC[C@]12O[C@H](C(=O)O)[C@@](O)(C(=O)O)[C@](C(=O)O)(O1)[C@H](OC(=O)CC/C=C/[C@H](C)CCCc1ccccc1)[C@H]2O)[C@H](C)Cc1ccccc1 [ZARAGOZIC ACID C] | 6.82 | 9.40
CCCCCCCCCC(=O)O[C@@H]1[C@@H](O)[C@@]2(CCCC(OC(C)=O)C(C)C/C=C/c3ccccc3)O[C@H](C(=O)O)[C@@](O)(C(=O)O)[C@]1(C(=O)O)O2 (some centres undefined) [ZARAGOZIC ACID D2] | 7.00 | 8.70
CCCCCCCC(=O)O[C@@H]1[C@@H](O)[C@@]2(CCCC(OC(C)=O)C(C)C/C=C/c3ccccc3)O[C@H](C(=O)O)[C@@](O)(C(=O)O)[C@]1(C(=O)O)O2 (some centres undefined) [ZARAGOZIC ACID D] | 7.00 | 8.22
C=C(CC[C@]12O[C@H](C(=O)O)[C@@](O)(C(=O)O)[C@](C(=O)O)(O1)[C@H](OC(=O)/C=C/[C@@H](C)C[C@@H](C)CC)[C@H]2O)[C@@H](OC(C)=O)[C@H](C)Cc1ccccc1 [ZARAGOZIC ACIDS A] | 6.60 | –
